This is an account of results in patent US9963518B2, “Cyclic oligosaccharides for use in the treatment and prevention of bacterial infection” (priority 2011, dated 2018).

One experiment concerns the target WT Wza (Escherichia coli, UniProt Q9X4B7). Nature of the experiment: Single-channel electrical recording, blockers against wt-Wza in planar lipid bilayers. The note with it: 2M KCl, 5 mM HEPES, 100 μM EDTA, 200 μM DTT, pH 7.5. The format is binding, E. coli. How it is done: The Wt Wza transporter was tested in single-channel recording, in accordance with the procedures of Naismith (Nature 2006, 444, 226-229) for its ability to form pores in planar lipid bilayers. Sequential insertions of channels in a single orientation were used to measure the conductance of a single channel because more than one channel could insert simultaneously during the first introduction, especially when protein molecules have not properly diffused yet. Repetition of experiments helped to verify conductance of a single channel. […] After collection of 37 insertions of wt Wza channel, the current of a single channel of wt Wza in 2 M KCl buffer was determined to be 1.89±0.01 pA (n=37) on average, corresponding to 18.9±0.1 pS (n=37) in conductance.
(§1) Thirteen commercial cyclodextrins (CDs) were tested for their ability to block WT-Wza and the mutant Y110G/K375C (Table 1) including, neutral, negatively charged or positively charged cyclodextrins. Testing was carried out using electrical channel recording in high salt buffer (2M KCl, 5 mM HEPES, 100 μM EDTA, 200 μM DTT) at pH 7.5.

The target of another experiment is mutant Wza ΔP106-A107 (Escherichia coli, UniProt Q9X4B7, DEL106-107). The experiment in a line: Single-channel electrical recording, mutant Wza ΔP106-A107. The format is binding, E. coli. To be noted: n = 3, read-out: Dissociation constant (Kd) with mutant Wza pore.
The target of the next experiment is Wza Y110G/K375C (Escherichia coli, UniProt Q9X4B7, K375C/Y110G). The experiment in a line: Single-channel electrical recording, blockers against mutant Wza Y110G/K375C. It is filed as binding, E. coli. As for the experimental part: The Wza pore was opened by replacing the tyrosines at position 110 that line the narrowest region of the lumen with glycine. To confirm that the currents observed indeed arose from the mutant pore, a cysteine was introduced in the α-helix barrel (Y110G/K375C) and would therefore yield a characteristic reversible blockade when derivatized with a suitable thiol-specific reagent.
The unitary conductance of the Y110G/K375C pore was determined as for wt-Wza, by measuring stepwise-insertion using the same technique referenced above. The mean open current of Y110G/K375C was determined to be +85±14.1 pA (+50 mV, n=31), corresponding to 1.70±0.28 nS (+50 mV, n=31) in conductance.
as §1

Experiment [1] concerns K30 polysaccharide transport through Wza. The experiment in a line: Inhibition of K30 polysaccharide transport through Wza, phenol extraction and carbohydrate staining. It is filed as cell-based, E. coli strain E69. How it is done:
The inhibitory effect of am8γCD, am7βCD and am6αCD were tested on live bacteria (E. coli strain E69) with K30 capsular polysaccharide (CPS) and Wza as its transporter. Isolation and staining of the polysaccharides was used. Phenol extraction was carried out in accordance with Orskov (Eur. J. Biochem.; 1980, Stirm, J. Bacteriol. 1967) to isolate the capsular polysaccharide (CPS) and lipopolysaccharide (LPS), followed by carbohydrate staining Pro-Q Emerald 300 glycoprotein stain kit (Molecular Probes) was used for staining of both the CPS and LPS. The staining time, loading volume, oxidation time and washing time after staining were optimised and the following conditions used in the assay:
Loading volume: 3 μL of the stock aqueous polysaccharide solution (see below), mixed with 3 μL of the Laemmli sample buffer (1 mL, Bio-Rad) mixed with 2-mercaptoethanol (950 microliter:50 microliter) before use;
Oxidation time: 30 minutes
Further details of the microbiology and the staining procedures used are as follows: The strains were grown in the absence of or the presence of various concentrations of am8γCD overnight in M9 minimal medium until OD reached ˜0.5. Cells were collected by centrifugation of the culture at 2583×g for 20 minutes at 4° C. In the phenol extraction, volume of phenol/buffer (20 mM Tris.-HCl, 2 mM MgCl2, 20 mM NaCl, pH 8.0) to each tube with a cell pellet is calculated as OD*667 μL. […] By doing this, the cell concentration in each sample was identical so that the changes in CPS and LPS quantity of each cell on average could be compared quantitatively.
Detailed measurement of the inhibitory effect of am8γCD towards K30 polysaccharide translocation was then performed. […] The gel was stained to generate fluorescence signals that correspond to the sugar quantity. […]
The fluorescent intensities of the gels were measured by using the Bio-Rad Universal Hood II. […] The fluorescence intensity of each lane was processed with the Plot Lane function after illumination of the gel with UV light at 302 nm and fluorescent data collection emissions going through an Amber Filter (548-630 nm).

In the next experiment the target is mutant Wza Y110G/Y373C (Escherichia coli, UniProt Q9X4B7, Y110G/Y373C). The experiment in a line: Single-channel electrical recording, mutant Wza Y110G/Y373C. It is filed as binding, E. coli. The note with it: 2M KCl buffer pH 7.5, +3 mV, n = 3, read-out: Dissociation constant (Kd) with mutant Wza pore.

Structures are written as SMILES. Where “and” joins values, the source holds several entries; their conditions need not be identical. Identical values can stand only once. Like-named read-outs stand apart in the source and are kept apart here.

On to `NC[C@H]1O[C@@H]2O[C@H]3[C@H](O)[C@@H](O)[C@@H](O[C@H]4[C@H](O)[C@@H](O)[C@@H](O[C@H]5[C@H](O)[C@@H](O)[C@@H](O[C@H]6[C@H](O)[C@@H](O)[C@@H](O[C@H]7[C@H](O)[C@@H](O)[C@@H](O[C@H]8[C@H](O)[C@@H](O)[C@@H](O[C@H]9[C@H](O)[C@@H](O)[C@@H](O[C@H]1[C@H](O)[C@H]2O)O[C@@H]9CN)O[C@@H]8CN)O[C@@H]7CN)O[C@@H]6CN)O[C@@H]5CN)O[C@@H]4CN)O[C@@H]3CN` [No. 12, Octacis (6-amino-6-deoxy)-γ-cyclodextrin], for which the “Interaction with WT Wza” value on WT Wza is “not observed”. Also, the Kd is 0.044 ± 0.025 µM at mutant Wza ΔP106-A107 (ΔP106-A107, 300 mM KCl, 5 mM HEPES, pH 7.5, +5 mV); 7.8 ± 5.2 µM on mutant Wza ΔP106-A107 (ΔP106-A107, 2M KCl buffer pH 7.5, +3 mV); 12.3 µM and 12 µM at Wza Y110G/K375C (Kd, interaction with mutant Wza, Y110G/K375C, +3 mV, n = 3, 2M KCl buffer pH 7.5); 570 ± 520 µM on mutant Wza Y110G/Y373C. Also, at Wza Y110G/K375C (Y110G/K375C, 2M KCl, 5 mM HEPES, 100 μM EDTA, 200 μM DTT, pH 7.5), the “Interaction with mutant Wza” value was “not observed^c”. At Wza Y110G/K375C (at different voltages), the “Binding strength relative to am7βCD” value was not below 10 times. The “Inhibition of K30 polysaccharide transport compared with am7βCD and am6αCD” value in experiment [1] (1 mM, E. coli strain E69, staining assay) was “much stronger”. Moreover, the “LPS fluorescent intensity at saturation” value in experiment [1] (E. coli strain E69, increasing am8γCD) was “around 2 times that of the control”. Besides, the IC50 in experiment [1] (Escherichia coli, read-out: IC50 from concentration dependence of the CPS band intensity) came out at 51.2 ± 1 µM.
